According to US10807932B2, “Benzosuberene analogues and related compounds with activity as anticancer agents” (Baylor University, priority 2018, dated 2020):

Columns and labels:
[1] = biological target: T1, purified bovine brain tubulin (Bos taurus, UniProt P81947+Q6B856); test: Inhibition of tubulin polymerization (turbidimetric, cell-free); type: biochemical; conditions: for IC50: 10 μM tubulin, extent of polymerization after 20 min at 30° C., read-out: Inhibition of tubulin polymerization IC50 (μM) ± SD; for inhibition of tubulin polymerization (in words): cell-free assay
T1 construct: purified bovine brain tubulin; from tissue; host or cells: bovine brain
Procedure: Inhibition of Tubulin Polymerization.
Tubulin polymerization was evaluated in 0.25 mL reaction mixtures (final volume) containing 1 mg/mL (10 μM) purified bovine brain tubulin, 0.8 M monosodium glutamate (pH 6.6), 4% (v/v) dimethyl sulfoxide, 0.4 mM GTP, and different compound concentrations. All components except GTP were preincubated for 15 min at 30° C. in 0.24 mL. The assay mixtures were cooled to 0° C., and 10 μL of 0.01 M GTP was added to each sample. Reaction mixtures were transferred to cuvettes held at 0° C. in Beckman DU-7400 and DU-7500 spectrophotometers equipped with electronic temperature controllers. The temperature was increased to 30° C., over about 30 s, and polymerization was followed turbidimetrically at 350 nm for 20 min.

tubulin = test: Colchicine binding assay (inhibition of [3H]colchicine binding to tubulin); conditions: 1.0 μM tubulin, 5.0 μM [3H]colchicine
Procedure: Colchicine Binding Assay.
Inhibition of [^3H]colchicine binding to tubulin was measured in 0.1 mL reaction mixtures, each containing 1.0 μM tubulin, 5.0 μM [^3H]colchicine (Perkin-Elmer), 5% (v/v) dimethyl sulfoxide, […], and components that stabilize the colchicine binding activity of tubulin (1.0 M monosodium glutamate [adjusted to pH 6.6 with HCl in a 2.0 M stock solution], 0.5 mg/mL bovine serum albumin, 0.1 M glucose-1-phosphate, 1.0 mM MgCl2, and 1.0 mM GTP). […] Reactions were stopped with 2.0 mL of ice-cold water, with the reaction mixtures being placed on ice. Each diluted sample was poured onto a stack of two DEAE-cellulose filters (GE Biomedical), followed by 3 successive 2 mL aliquots of ice-cold water. A reduced vacuum was used to remove excess water from the filters, which were washed three times with 2 mL water and placed into vials containing 5 mL of Biosafe II scintillation cocktail. Samples were counted 18 h later in a Beckman scintillation counter. Samples with inhibitors were compared to samples with no inhibitor, and percent inhibition was determined, correcting all values for the amount of radiolabel bound to the filters in the absence of tubulin.

[2] = test system: NCI-H460 (lung) cancer cell line; test: Sulforhodamine B (SRB) growth inhibition assay, NCI-H460; type: cell-based, human; conditions: 48 h treatment
From the text: (§1) Cell Lines and Sulforhodamine B (SRB) Assay.
(§2) The sulforhodamine B (SRB) assay was used to assess growth inhibition of human cancer cells, as previously described. DU-145, SK-OV-3, and NCI-H460 cancer cell lines (obtained from ATCC) were maintained in T75 flasks (Corning) using high glucose DMEM supplemented with 10% fetal bovine serum (Gibco)/1% gentamicin sulfate for a maximum of 15 passages. For these experiments, cells were trypsinized, counted, and plated at 7000-8000 cells/well into 96-well plates (Corning) and incubated for 24 h at 37° C. in a humidified incubator in a 5% CO2 atmosphere. Compounds to be tested were dissolved in DMSO to generate a 10 mg/mL stock solution, and serial dilutions added in media to the plates. Doxorubicin (Sigma-Aldrich) and paclitaxel (Tokyo Chemical) were used as positive controls. After a 48 h treatment, the cells were fixed with trichloroacetic acid (10% final concentration), washed, dried, stained with SRB dye, washed to remove excess dye, and dried. SRB dye was solubilized, and absorbances were measured at wavelength 540 nm and normalized to values at wavelength 630 nm using an automated Biotek plate reader.

[3] = test system: SK-OV-3 (ovarian) cancer cell line; test: Sulforhodamine B (SRB) growth inhibition assay, SK-OV-3; type: cell-based, human; conditions: 48 h treatment
From the text: as §1, §2

[4] = test system: DU-145 (prostate) cancer cell line; test: Sulforhodamine B (SRB) growth inhibition assay, DU-145; type: cell-based, human; conditions: 48 h treatment
From the text: as §1, §2

T1 sequence (Q6B856 whole entry): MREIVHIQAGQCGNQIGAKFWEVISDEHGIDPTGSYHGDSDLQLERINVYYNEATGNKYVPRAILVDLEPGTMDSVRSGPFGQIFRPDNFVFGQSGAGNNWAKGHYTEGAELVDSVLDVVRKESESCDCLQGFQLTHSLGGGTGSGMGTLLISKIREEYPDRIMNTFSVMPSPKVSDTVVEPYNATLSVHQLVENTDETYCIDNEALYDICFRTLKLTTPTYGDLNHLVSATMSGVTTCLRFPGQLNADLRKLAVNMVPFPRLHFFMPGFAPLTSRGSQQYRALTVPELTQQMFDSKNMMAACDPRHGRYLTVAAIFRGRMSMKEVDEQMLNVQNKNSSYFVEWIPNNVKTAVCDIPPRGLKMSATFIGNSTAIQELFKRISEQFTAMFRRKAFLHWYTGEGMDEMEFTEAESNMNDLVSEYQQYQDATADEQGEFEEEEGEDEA
T1 sequence (P81947 whole entry): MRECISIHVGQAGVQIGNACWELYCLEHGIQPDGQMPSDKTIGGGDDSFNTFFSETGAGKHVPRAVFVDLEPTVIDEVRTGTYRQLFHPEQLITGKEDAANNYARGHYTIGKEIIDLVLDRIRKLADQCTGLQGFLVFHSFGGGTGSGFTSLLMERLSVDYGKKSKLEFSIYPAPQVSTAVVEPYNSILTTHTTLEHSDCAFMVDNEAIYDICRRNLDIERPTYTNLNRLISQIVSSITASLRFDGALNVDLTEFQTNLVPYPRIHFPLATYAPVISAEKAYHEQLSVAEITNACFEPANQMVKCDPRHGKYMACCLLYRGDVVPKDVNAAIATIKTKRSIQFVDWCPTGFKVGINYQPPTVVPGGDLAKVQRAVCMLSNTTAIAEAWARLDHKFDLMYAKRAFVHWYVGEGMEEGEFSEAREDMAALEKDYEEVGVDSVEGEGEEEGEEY

| SMILES | IC50 [1] | % Inhibition of colchicine binding ± SD (tubulin; compound at 5 μM) | GI50 ([2]; Homo sapiens, NCI-H460) | GI50 [3] | GI50 ([4]; Homo sapiens, DU-145) | GI50 ([3]; Homo sapiens, SK-OV-3) | inhibition of tubulin polymerization (in words) [1] | % Inhibition of colchicine binding ± SD (tubulin; compound at 0.5 μM) | % Inhibition of colchicine binding ± SD (tubulin; compound at 1 μM) | GI50 [2] | GI50 [4] |
| --- | --- | --- | --- | --- | --- | --- | --- | --- | --- | --- | --- |
| COc1ccc2c(c1C#N)CCC=C2c1cc(OC)c(OC)c(OC)c1 [Compound 39, 2-Methoxy-5-(3,4,5-trimethoxyphenyl)-7,8-dihydronaphthalene-1-carbonitrile] | 0.37 ± 0.08 µM | 73 ± 0.6 (5 μM) % | 0.0605 µM | 0.0384 µM | – | – | – | – | – | – | – |
| COc1ccc2c(c1O)CCCC1=C2c2cc(OC)c(OC)c(OC)c2C1=O [Compound 91, 4-Hydroxy-3,9,10,11-tetramethoxy-6,7-dihydrodibenzo[a,h]azulen-8(5H)-one] | 4.2 ± 0.2 µM | 45 ± 4 (5 μM) % | 0.105 µM | – | 0.0321 µM | 0.0399 µM | – | – | – | – | – |
| COc1ccc2c(c1CO)CCCC=C2c1cc(OC)c(OC)c(OC)c1 [Compound 48, (3-Methoxy-9-(3,4,5-trimethoxyphenyl)-6,7-dihydro-5H-benzo[7]annulen-4-yl)methanol] | 0.63 ± 0.03 µM | 76 ± 2 (5 μM) % | 0.0628 µM | – | – | 0.0403 µM | – | – | – | – | – |
| COc1cc(C2CCc3c(ccc(OC)c3OC)C(=O)C2)cc(OC)c1OC (stereo not drawn) [Compound 77, 1,2-Dimethoxy-7-(3,4,5-trimethoxyphenyl)-6,7,8,9-tetrahydro-5H-benzo[7]annulen-5-one] | > 20 µM | 0 (5 μM) % | 2 µM | – | 4.45 µM | 5.77 µM | lack of activity | – | – | – | – |
| COc1ccc2c(c1C=O)CCCC=C2c1cc(OC)c(OC)c(OC)c1 [Compound 40, 3-Methoxy-9-(3,4,5-trimethoxyphenyl)-6,7-dihydro-5H-benzo[7]annulene-4-carbaldehyde] | 3.2 ± 0.08 µM | 61 ± 3 (5 μM) % | 0.0847 µM | – | 0.0402 µM | 0.0572 µM | – | – | – | – | – |
| COc1cccc2c1C(=O)c1c(O)c3c(c(O)c1C2=O)C[C@@](O)(C(=O)CO)C[C@@H]3O[C@H]1C[C@H](N)[C@H](O)[C@H](C)O1 [Doxorubicin, reference compound] | – | – | 0.123 µM | – | 0.134 µM | 0.0789 µM | – | – | – | – | – |
| CC(=O)O[C@H]1C(=O)[C@@]2(C)[C@H]([C@H](OC(=O)c3ccccc3)[C@]3(O)C[C@H](OC(=O)[C@H](O)[C@@H](NC(=O)c4ccccc4)c4ccccc4)C(C)=C1C3(C)C)[C@]1(OC(C)=O)CO[C@@H]1C[C@@H]2O [Paclitaxel, paclitaxel, reference compound] | – | – | 0.00176 µM | – | 0.00147 µM | 0.00134 µM | – | – | – | – | – |
| COc1ccc2c(c1O)CC=CC=C2c1cc(OC)c(OC)c(OC)c1 [Compound 88, 3-Methoxy-9-(3,4,5-trimethoxyphenyl)-5H-benzo[7]annulen-4-ol] | 0.48 ± 0.08 µM | 95 ± 0.8% | 0.0581 µM | – | 0.0976 µM | 0.0069 µM | – | 68 ± 1% | – | – | – |
| COc1ccc(/C=C\c2cc(OC)c(OC)c(OC)c2)cc1O [CA4, combretastatin A-4, reference compound] | – | – | – | 0.00455 µM | – | – | – | – | 84 ± 3% | 0.00223 µM | 0.00327 µM |
| COc1ccc2c(c1C#N)CCCC=C2c1cc(OC)c(OC)c(OC)c1 [Compound 38, 3-Methoxy-9-(3,4,5-trimethoxyphenyl)-6,7-dihydro-5H-benzo[7]annulene-4-carbonitrile] | 1.1 ± 0.1 µM | 62 ± 0.7 (5 μM) % | 0.434 µM | 0.0648 µM | 0.86 µM | – | – | – | – | – | – |
| COc1cc(C2(O)C=CCCc3c2ccc(OC)c3OC)cc(OC)c1OC (stereo not drawn) [Compound 76, 1,2-Dimethoxy-5-(3,4,5-trimethoxyphenyl)-8,9-dihydro-5H-benzo[7]annulen-5-ol] | > 20 µM | 0 (5 μM) % | 70.5 µM | – | 26 µM | 27.2 µM | lack of tubulin activity | – | – | – | – |
| COc1ccc2c(c1O)CCCCC2(O)c1cc(OC)c(OC)c(OC)c1 (stereo not drawn) [Compound 23, 2-Methoxy-5-(3,4,5-trimethoxyphenyl)-6,7,8,9-tetrahydro-5H-benzo[7]annulene-1,5-diol] | > 20 µM | – | 0.173 µM | – | 0.033 µM | 0.394 µM | reduced inhibition of tubulin polymerization | – | – | – | – |
| COc1ccc2c(c1C)CCCC=C2c1cc(OC)c(OC)c(OC)c1 [Compound 9, 1-methy-2-methoxy-5-(3′, 4′, 5′-trimethoxyphenyl)-benzosuber-5-ene] | 1.6 ± 0.2 µM | 65 ± 0.6 (5 μM) % | 0.422 µM | – | 0.644 µM | 0.33 µM | – | – | – | – | – |
| COCCOCCOc1c(OC)ccc2c1CCCC=C2c1cc(OC)c(OC)c(OC)c1 [Compound 28, 3-Methoxy-4-(2-(2-methoxyethoxy)ethoxy)-9-(3,4,5-trimethoxyphenyl)-6,7-dihydro-5H-benzo[7]annulene] | > 20 µM | – | 1.9 µM | – | 5.66 µM | 6.52 µM | loss of inhibitory activity | – | – | – | – |
| COc1ccc2c(c1O)CCCC(O)C2(O)c1cc(OC)c(OC)c(OC)c1 (stereo not drawn) [Compound 35, 2-Methoxy-5-(3,4,5-trimethoxyphenyl)-6,7,8,9-tetrahydro-5H-benzo[7]annulene-1,5,6-triol] | > 20 µM | 0 (5 μM) % | 3.86 µM | – | 4.04 µM | 3.03 µM | reduced inhibition of tubulin polymerization | – | – | – | – |
| COc1cc(C2=CCCCc3c2ccc(OC)c3OCCO)cc(OC)c1OC [Compound 31, 2-((3-Methoxy-9-(3,4,5-trimethoxyphenyl)-6,7-dihydro-5H-benzo[7]annulen-4-yl)oxy)ethan-1-ol] | > 20 µM | – | 0.855 µM | – | 3.76 µM | 3.22 µM | loss of inhibitory activity | – | – | – | – |
| CCCCc1c(OC)ccc2c1CCCC=C2c1cc(OC)c(OC)c(OC)c1 [Compound 20, 4-Butyl-3-methoxy-9-(30,40,50-trimethoxyphenyl)-6,7-dihydro-5H-benzo[7]annulene] | > 20 µM | – | 16.1 µM | – | 12.2 µM | 11.5 µM | – | – | – | – | – |
| COc1cc(C2=CC(O)CCc3c2ccc(OC)c3OC)cc(OC)c1OC (stereo not drawn) [Compound 57, 3,4-Dimethoxy-9-(3,4,5-trimethoxyphenyl)-6,7-dihydro-5H-benzo[7]annulen-7-ol] | 3.8 ± 0.5 µM | 28 ± 4 (5 μM) % | 0.432 µM | – | 0.439 µM | 0.263 µM | reduced inhibition of tubulin polymerization | – | – | – | – |
| COc1ccc2c(c1OC)CCCC1=C2c2cc(OC)c(OC)c(OC)c2C1=O [Compound 93, 3,4,9,10,11-Pentamethoxy-6,7-dihydrodibenzo[a,h]azulen-8(5H)-one] | > 20 µM | – | 0.65 µM | – | 3.26 µM | 3.35 µM | – | – | – | – | – |
| COc1ccc2c(c1O)CCC(NC(C)=O)C=C2c1cc(OC)c(OC)c(OC)c1 (stereo not drawn) [Compound 69] | – | 0.4 ± 0.6 (5 μM) % | 0.334 µM | – | 1.2 µM | – | – | – | – | – | – |
| COc1ccc2c(c1O)CCCC(=O)C2(O)c1cc(OC)c(OC)c(OC)c1 (stereo not drawn) [Compound 24, 1,5-Dihydroxy-2-methoxy-5-(3,4,5-trimethoxyphenyl)-5,7,8,9-tetrahydro-6H-benzo[7]annulen-6-one] | 1.2 ± 0.1 µM | 72 ± 2 (5 μM) % | 0.0476 µM | – | 0.141 µM | 0.0314 µM | – | – | – | – | – |
